# Measured values from ChEMBL document CHEMBL1142782, “Inhibition of tumor cell proliferation by thieno[2,3-d]pyrimidin-4(1H)-one-based analogs” (Bioorg Med Chem Lett, 2005).
# What was measured:
# DLD-1 = test: Inhibitory concentration against human colon tumor cell line DLD1; type: functional, cell-based
# SW-620 = test: Inhibitory concentration against human colon tumor cell line SW620; type: functional, cell-based
# HT-29 = test: Inhibitory concentration against human colon tumor cell line HT-29; type: functional, cell-based
# [1] = target: Cyclin-dependent kinase inhibitor 1 (Homo sapiens) (UniProt P38936); test: Selectivity ratio between p21(-/-) and p21(+/+) isogenic cell lines; type: functional
# LoVo = test: Inhibitory concentration against human colon tumor cell line LoVo; type: functional, cell-based
# Sequence of Cyclin-dependent kinase inhibitor 1 (Homo sapiens) (P38936 whole entry): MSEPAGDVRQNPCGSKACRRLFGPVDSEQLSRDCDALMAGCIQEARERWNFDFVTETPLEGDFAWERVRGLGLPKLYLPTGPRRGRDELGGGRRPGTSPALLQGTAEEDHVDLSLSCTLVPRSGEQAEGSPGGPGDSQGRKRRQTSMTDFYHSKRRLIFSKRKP
SMILES,IC50 (DLD-1),IC50 (SW-620),IC50 (HT-29),Ratio [1],IC50 (LoVo)
CCOc1ccc(-c2nc(O)c3c4c(sc3n2)CCCC4)cc1,4.6 µM,5 µM,5 µM,> 2.4,2.6 µM
COc1cc(-c2nc(O)c3c4c(sc3n2)CCCCC4)cc(OC)c1OC,0.35 µM,0.22 µM,0.45 µM,8.7,0.17 µM
CSc1ccc(-c2nc(O)c3c4c(sc3n2)CCCC4)cc1,0.89 µM,0.8 µM,1 µM,> 4.9,0.43 µM
O=C(c1cccs1)c1cnn2c(-c3cccc(NC(=O)C4CC4)c3)ccnc12,,,,30,

# Now from value to compound:
IC50 (DLD-1),IC50 (SW-620),IC50 (HT-29),Ratio [1],IC50 (LoVo),SMILES
0.28 µM,0.19 µM,0.24 µM,> 8.7,0.14 µM,COc1cc(-c2nc(O)c3c4c(sc3n2)CCCC4)cc(OC)c1OC
0.22 µM,0.42 µM,0.42 µM,19,0.46 µM,COc1ccc(-c2nc(O)c3c4c(sc3n2)CCCC4)c(F)c1
0.29 µM,0.23 µM,0.33 µM,> 8.5,0.15 µM,COc1ccc(-c2nc(O)c3c4c(sc3n2)CCCC4)cc1
0.26 µM,0.19 µM,0.3 µM,> 5.8,0.13 µM,COc1cc(-c2nc(O)c3c4c(sc3n2)CCC4)cc(OC)c1OC
0.29 µM,0.23 µM,0.33 µM,8.3,0.15 µM,COc1ccc(-c2nc(O)c3c4c(sc3n2)CCC4)cc1
